According to patent US11512268B2, “Storage-stable enzyme preparations, their production and use” (BASF SE, priority 2017, dated 2022):

Legend:
[1] = target: T1, Savinase (Lederbergia lenta, UniProt P29600); assay: storage stability of protease (Savinase activity, Suc-AAPF-pNA substrate) in liquid formulations at 37° C.; type: biochemical; conditions: Savinase 16.0 L 0.5 wt %, storage at 37° C.
T1 construct: purchased Sigma-Aldrich
T1 sequence (P29600 1-269): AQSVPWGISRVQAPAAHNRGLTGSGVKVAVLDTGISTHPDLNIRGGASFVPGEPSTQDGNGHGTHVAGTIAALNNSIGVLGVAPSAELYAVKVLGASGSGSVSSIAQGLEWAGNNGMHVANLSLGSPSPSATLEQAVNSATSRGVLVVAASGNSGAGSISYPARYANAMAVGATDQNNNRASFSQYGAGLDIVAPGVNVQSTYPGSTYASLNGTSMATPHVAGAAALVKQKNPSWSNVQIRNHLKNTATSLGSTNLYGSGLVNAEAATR
Protocol: (§1) The storage stability of Lipase and Protease in water was assessed at 37° C.
(§2) Base test formulations were manufactured by making base formulations I to VI by mixing the components according to Table 1.
(§3) The respective salt (component (a)) or comparative compound was added, if applicable, to the respective base formulation in amounts as indicated in Table 1.
(§4) The amount of enzyme as provided in Table 1 refers to active protein. Either lipase or protease was added, depending on which enzyme activity was measured.
(§5) Lipolase® 100 L (CAS-No. 9001-62-1, EC-No. 232-619-9) was purchased from Sigma-Aldrich. Savinase® 16.0 L (CAS-No. 9014-01-1, EC-No. 232-752-2) was purchased from Sigma-Aldrich.
Savinase activity at certain points in time as indicated in Table 3 was be determined by employing Succinyl-Ala-Ala-Pro-Phe-p-nitroanilide (Suc-AAPF-pNA, short AAPF) as substrate. pNA is cleaved from the substrate molecule by proteolytic cleavage, resulting in release of yellow color of free pNA which was determined by measuring OD405. Measurement were done at 20° C.
The proteolytic activity values provided in Table 3 were calculated referring to the 100% value determined in the reference formulation at the time 0.
(§6) The nomenclature of formulations is as follows: the Roman number before the full stop characterizes the base formulation, the Arabian number the type of salt (A.# inventive salt (component (a)); C-(A.#) comparative compound). Zero (“0”): no salt, but diethylene glycol.

[2] = target: T2, Lipolase (Thermomyces lanuginosus, UniProt O59952); assay: storage stability of lipase (Lipolase activity, pNitrophenol-valerate substrate) in liquid formulations at 37° C.; type: biochemical, Thermomyces lanuginosa; conditions: Lipolase 0.4 wt %, storage at 37° C.
T2 construct: purchased Sigma-Aldrich
T2 sequence (O59952 23-291): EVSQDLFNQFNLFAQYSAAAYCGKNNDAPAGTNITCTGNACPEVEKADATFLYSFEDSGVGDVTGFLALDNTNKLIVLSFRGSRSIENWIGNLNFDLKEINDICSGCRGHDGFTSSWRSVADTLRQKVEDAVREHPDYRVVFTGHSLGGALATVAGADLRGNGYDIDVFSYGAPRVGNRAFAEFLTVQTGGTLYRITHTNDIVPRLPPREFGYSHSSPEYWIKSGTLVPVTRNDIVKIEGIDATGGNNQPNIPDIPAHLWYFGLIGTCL
Protocol: as §1, §2, §3, §4, §5
Lipolase activity at certain points in time as indicated in Table 2 was be determined by employing pNitrophenol-valerate (2.4 mM pNP-C5 in 100 mM Tris pH 8.0, 0.01% Triton X100) as a substrate. The absorption was measured at 20° C. every 30 seconds over 5 minutes at 405 nm. The slope (absorbance increase at 405 nm per minute) of the time dependent absorption-curve is directly proportional to the activity of the lipase.
The lipolytic activity values provided in Table 2 were calculated referring to the 100% value determined in the reference formulation at the time 0.
as §6

[3] = base formulation I., component (a) 2.5 wt %, 1 d
[4] = base formulation I., component (a) 2.5 wt %, 3 d
[5] = base formulation I., component (a) 2.5 wt %, 6 d
[6] = base formulation I., component (a) 2.5 wt %, 10 d
[7] = base formulation I., component (a) 2.5 wt %, 15 d
[8] = base formulation I., component (a) 2.5 wt %, 20 d
[9] = base formulation I., component (a) 2.5 wt %, 25 d
[10] = base formulation I., component (a) 2.5 wt %, 30 d
[11] = base formulation I., component (a) 2.5 wt %, T0
[12] = base formulation IV., component (a) 4.0 wt %, 1 d
[13] = base formulation IV., component (a) 4.0 wt %, 3 d
[14] = base formulation IV., component (a) 4.0 wt %, 6 d
[15] = base formulation IV., component (a) 4.0 wt %, 10 d
[16] = base formulation IV., component (a) 4.0 wt %, 15 d
[17] = base formulation IV., component (a) 4.0 wt %, 20 d
[18] = base formulation IV., component (a) 4.0 wt %, 25 d
[19] = base formulation IV., component (a) 4.0 wt %, 30 d
[20] = base formulation V., component (a) 4.0 wt %, 1 d
[21] = base formulation V., component (a) 4.0 wt %, 3 d
[22] = base formulation V., component (a) 4.0 wt %, 6 d
[23] = base formulation V., component (a) 4.0 wt %, 10 d
[24] = base formulation V., component (a) 4.0 wt %, 15 d
[25] = base formulation V., component (a) 4.0 wt %, 20 d
[26] = base formulation V., component (a) 4.0 wt %, 25 d
[27] = base formulation V., component (a) 4.0 wt %, 30 d

Work on `C[N+](C)(C)CCO.[Cl-]` [C-(A.15), Choline chloride] yielded a protease activity [1, 3] of 92%, a protease activity [1, 4] of 85% and a protease activity [1, 5] of 64%. For the same compound, the protease activity [1, 6] was 47%, the protease activity [1, 7] was 39% and the protease activity [1, 8] was 31%. The protease activity [1, 9] was 22%, the protease activity [1, 10] was 8% and the protease activity [1, 11] was 98%. For the same compound, the protease activity ([1]; base formulation VI., component (a) 4.0 wt %, 1 d) was 90%, the protease activity ([1]; base formulation VI., component (a) 4.0 wt %, 3 d) was 84% and the protease activity ([1]; base formulation VI., component (a) 4.0 wt %, 6 d) was 66%. For the same compound, the protease activity ([1]; base formulation VI., component (a) 4.0 wt %, 10 d) was 47%, the protease activity ([1]; base formulation VI., component (a) 4.0 wt %, 15 d) was 36% and the protease activity ([1]; base formulation VI., component (a) 4.0 wt %, 20 d) was 29%. For the same compound, the protease activity ([1]; base formulation VI., component (a) 4.0 wt %, 25 d) was 20%, the protease activity ([1]; base formulation VI., component (a) 4.0 wt %, 30 d) was 10% and the protease activity ([1]; base formulation VI., component (a) 4.0 wt %, T0) was 85%. The lipase activity [2, 3] was 95%, the lipase activity [2, 4] was 80% and the lipase activity [2, 5] was 67%. For the same compound, the lipase activity [2, 6] was 55%, the lipase activity [2, 7] was 41% and the lipase activity [2, 8] was 32%. It also gave a lipase activity [2, 9] of 22%, a lipase activity [2, 10] of 20% and a lipase activity ([2]; base formulation II., component (a) 2.5 wt %, 1 d) of 95%. The lipase activity ([2]; base formulation II., component (a) 2.5 wt %, 3 d) was 82%, the lipase activity ([2]; base formulation II., component (a) 2.5 wt %, 6 d) was 65% and the lipase activity ([2]; base formulation II., component (a) 2.5 wt %, 10 d) was 56%. The lipase activity ([2]; base formulation II., component (a) 2.5 wt %, 15 d) was 40%, the lipase activity ([2]; base formulation II., component (a) 2.5 wt %, 20 d) was 33% and the lipase activity ([2]; base formulation II., component (a) 2.5 wt %, 25 d) was 26%. For the same compound, the lipase activity ([2]; base formulation II., component (a) 2.5 wt %, 30 d) was 22%, the lipase activity [2, 12] was 95% and the lipase activity [2, 13] was 82%. The lipase activity [2, 14] was 72%, the lipase activity [2, 15] was 59% and the lipase activity [2, 16] was 44%. The lipase activity [2, 17] was 36%, the lipase activity [2, 18] was 30% and the lipase activity [2, 19] was 23%. It also gave a lipase activity [2, 20] of 95%, a lipase activity [2, 21] of 86% and a lipase activity [2, 22] of 74%. For the same compound, the lipase activity [2, 23] was 63%, the lipase activity [2, 24] was 54% and the lipase activity [2, 25] was 41%. For the same compound, the lipase activity [2, 26] was 39% and the lipase activity [2, 27] was 30%.

`C[N+](C)(C)CCO.C[N+](C)(C)CCO.O=C([O-])C(O)C(O)C(=O)[O-]` (centres unmarked) [C-(A.16)] showed a protease activity [1, 3] of 91%, a protease activity [1, 4] of 84% and a protease activity [1, 5] of 66%. The protease activity [1, 6] was 49%, the protease activity [1, 7] was 38% and the protease activity [1, 8] was 30%. For the same compound, the protease activity [1, 9] was 23%, the protease activity [1, 10] was 10% and the protease activity [1, 11] was 98%. For the same compound, the lipase activity [2, 3] was 90%, the lipase activity [2, 4] was 81% and the lipase activity [2, 5] was 68%. For the same compound, the lipase activity [2, 6] was 51%, the lipase activity [2, 7] was 40% and the lipase activity [2, 8] was 34%. The lipase activity [2, 9] was 25%, the lipase activity [2, 10] was 24% and the lipase activity [2, 11] was 95%. The lipase activity [2, 12] was 90%, the lipase activity [2, 13] was 81% and the lipase activity [2, 14] was 67%. It also gave a lipase activity [2, 15] of 55%, a lipase activity [2, 16] of 41% and a lipase activity [2, 17] of 34%. For the same compound, the lipase activity [2, 18] was 28%, the lipase activity [2, 19] was 25% and the lipase activity ([2]; base formulation IV., component (a) 4.0 wt %, T0) was 95%. It also gave a lipase activity [2, 20] of 92%, a lipase activity [2, 21] of 85% and a lipase activity [2, 22] of 70%. It also gave a lipase activity [2, 23] of 65%, a lipase activity [2, 24] of 58% and a lipase activity [2, 25] of 49%. It also gave a lipase activity [2, 26] of 37%, a lipase activity [2, 27] of 28% and a lipase activity ([2]; base formulation V., component (a) 4.0 wt %, T0) of 96%.
